These are literature values, as cited in patent publication US20050171000A1, “Three dimensional coordinates of melanocortin-4 receptors” (The Procter & Gamble Company, priority 2003, published 2005).

In this data set the target is T1, MC4-R (Rattus norvegicus, UniProt P70596).
T1 construct: host or cells: living rats, intraventricular administration (endogenous receptor)
Particulars: intraventricular administration.

T1 sequence (P70596 whole entry): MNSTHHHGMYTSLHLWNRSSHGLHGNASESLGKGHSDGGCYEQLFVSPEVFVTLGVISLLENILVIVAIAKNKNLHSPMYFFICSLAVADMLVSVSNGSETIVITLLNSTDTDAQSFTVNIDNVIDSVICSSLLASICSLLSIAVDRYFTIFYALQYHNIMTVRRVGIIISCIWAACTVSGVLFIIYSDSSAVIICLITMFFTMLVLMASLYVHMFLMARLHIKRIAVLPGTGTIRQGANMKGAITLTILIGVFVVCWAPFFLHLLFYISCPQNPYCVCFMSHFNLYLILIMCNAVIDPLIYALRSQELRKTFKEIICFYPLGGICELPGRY

With MTII, the food intake entry is “reduced”.
